Laboratory results from patent publication US20220288115A1, “ORAL DISODIUM PYR[…] USE IN REDUCING CALCIFICATION” (priority 2019, published 2022).

Legend:
[1] = human subjects
Text: FIG. 1: Plasma bioavailability of PPi after oral disodium PPi and after oral tetrasodium PPI. Results of different subjects (#) are shown, as well as AUC and AUC/mg PPi.
In this experiment PPI bioavailability was compared between tetrasodium PPi and disodium PPi in different human subjects (as indicated by # in FIG. 1).

[2] = three months after the operation; 44 mg/kg per oral once daily
Procedure: As PXE patients have an increased risk of spontaneous gastrointestinal bleeding, aspirin medication was not used preoperatively. […] With the present therapy the patients absorbs extra 0.8 mg sodium and is informed to decrease daily salt intake.
Aspirin and PPi therapy were continued unaltered.

[3] = single oral dose, PXE patient, fasting baseline 0.7 μmol/l (FIG. 2)
Text: Legend indicates the dose (per kg of body weight) and time of PPi consumption.

O=P([O-])([O-])OP(=O)(O)O.[Na+].[Na+] [disodium pyrophosphate]
PPi bioavailability in plasma after oral uptake ([1]; compared with oral tetrasodium PPi (FIG. 1)): much better bioavailable | area under the curve (AUC) and calculated AUC/mg PPi of plasma PPi ([1]; oral, compared with tetrasodium PPi): higher | re-stenosis on computed tomography angiography (CTA) (one year postoperatively): without signs of re-stenosis | Walking Impairment Questionnaire (WIQ) score (one year postoperatively, baseline 0.19, 44 mg/kg per oral once daily): 0.89 | re-stenosis in the operated area on MRA (three months after the operation): no re-stenosis | safety laboratory tests [2]: normal | time plasma pyrophosphate stayed in the normal fasting range of healthy controls (0.8-1.6 μmol/l) [3]: 180 min
